The values that follow come from ChEMBL document CHEMBL3526124, “Optimized experimental design for the estimation of enzyme kinetic parameters: an experimental evaluation” (Drug Metab Dispos, 2012).

What is called Km is the substrate concentration at which the rate is half of its maximum. The Vmax is the rate approached at saturating substrate.

Data set [1] deals with Liver microsome. The data set is described as follows: Drug metabolism in human liver microsomes assessed as intrinsic clearance per mg protein by optimal design approach. (In general: Microsomes from liver hold many membrane-bound enzymes, among them those of drug oxidation.)
Data set [2] can be described thus: Drug metabolism in human liver microsomes by optimal design approach.
Data set [3] in a line: Drug metabolism in human liver microsomes by multiple depletion curves method.
Data set [4] relates to Liver microsome. The data set is described as follows: Drug metabolism in human liver microsomes assessed as intrinsic clearance per mg protein by multiple depletion curves method.
Data set [5] deals with T1, Cytochrome P450 2D6 (Homo sapiens, UniProt P10635). The data set is described as follows: Drug metabolism in assessed as human CYP2D6-mediated intrinsic clearance per mg protein. The class given is ADME. The following applies: recombinant enzyme.
The target of a further data set is CYP2D6 (Homo sapiens, UniProt P10635). The data set is described as follows: Drug metabolism in assessed as human CYP2D6-mediated metabolism. The following applies: recombinant enzyme. The class given is ADME.
Data set [6] has as its target T1, Cytochrome P450 2D6. The data set is described as follows: Drug metabolism in assessed as human CYP2D6-mediated maximum rate of reaction per mg protein. The class given is ADME. The following applies: recombinant enzyme.
A further data set deals with CYP2C9 (Homo sapiens, UniProt P11712). The data set is described as follows: Drug metabolism in assessed as human CYP2C9-mediated metabolism. The class given is ADME. As to conditions: recombinant enzyme.
The target in data set [7] is T2, Cytochrome P450 2C9 (Homo sapiens, UniProt P11712). The data set is described as follows: Drug metabolism in assessed as human CYP2C9-mediated maximum rate of reaction per mg protein. The class given is ADME. As to conditions: recombinant enzyme.
The target of data set [8] is T2, Cytochrome P450 2C9. The data set is described as follows: Drug metabolism in assessed as human CYP2C9-mediated intrinsic clearance per mg protein. The class given is ADME. As to conditions: recombinant enzyme.
Data set [9] in a line: Drug metabolism in assessed as human CYP3A-mediated intrinsic clearance per mg protein. The class given is ADME. As to conditions: recombinant enzyme.
The nature of data set [10]: Drug metabolism in assessed as human CYP3A-mediated maximum rate of reaction per mg protein. The class given is ADME. The following applies: recombinant enzyme.
Another data set has as its system CYP3A. The data set is described as follows: Drug metabolism in assessed as human CYP3A-mediated metabolism. The class given is ADME. The following applies: recombinant enzyme.
In data set [11] the target is T3, Cytochrome P450 1A2 (Homo sapiens, UniProt P05177).
T3 sequence (P05177 whole entry): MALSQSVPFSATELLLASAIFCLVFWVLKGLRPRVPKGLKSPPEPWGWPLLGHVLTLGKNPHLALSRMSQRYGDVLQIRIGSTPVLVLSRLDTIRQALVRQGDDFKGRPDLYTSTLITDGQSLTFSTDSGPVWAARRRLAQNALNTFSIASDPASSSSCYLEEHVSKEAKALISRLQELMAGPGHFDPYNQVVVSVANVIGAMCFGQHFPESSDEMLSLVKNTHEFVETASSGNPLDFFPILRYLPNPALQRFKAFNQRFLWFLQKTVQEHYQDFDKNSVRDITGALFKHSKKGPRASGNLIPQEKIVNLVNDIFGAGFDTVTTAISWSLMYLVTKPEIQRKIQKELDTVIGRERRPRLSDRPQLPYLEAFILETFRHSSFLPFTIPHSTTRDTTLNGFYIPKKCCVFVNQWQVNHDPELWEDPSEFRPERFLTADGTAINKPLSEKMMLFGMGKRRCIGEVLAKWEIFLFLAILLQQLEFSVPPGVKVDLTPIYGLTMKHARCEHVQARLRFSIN
The experiment in a line: Drug metabolism in assessed as human CYP1A2-mediated intrinsic clearance per mg protein. As to conditions: recombinant enzyme.

The target in data set [12] is T3, Cytochrome P450 1A2. The data set is described as follows: Drug metabolism in assessed as human CYP1A2-mediated maximum rate of reaction per mg protein. The class given is ADME. The following applies: recombinant enzyme.
Substrate in data set [13]: CN(C)CCCN1c2ccccc2CCc2ccccc21
The experiment in a line: not read.

Substrate in data set [14]: CCc1cccc2cc(C(O)CNC(C)(C)C)oc12
The data set is described as follows: not read.

T2 sequence (P11712 whole entry): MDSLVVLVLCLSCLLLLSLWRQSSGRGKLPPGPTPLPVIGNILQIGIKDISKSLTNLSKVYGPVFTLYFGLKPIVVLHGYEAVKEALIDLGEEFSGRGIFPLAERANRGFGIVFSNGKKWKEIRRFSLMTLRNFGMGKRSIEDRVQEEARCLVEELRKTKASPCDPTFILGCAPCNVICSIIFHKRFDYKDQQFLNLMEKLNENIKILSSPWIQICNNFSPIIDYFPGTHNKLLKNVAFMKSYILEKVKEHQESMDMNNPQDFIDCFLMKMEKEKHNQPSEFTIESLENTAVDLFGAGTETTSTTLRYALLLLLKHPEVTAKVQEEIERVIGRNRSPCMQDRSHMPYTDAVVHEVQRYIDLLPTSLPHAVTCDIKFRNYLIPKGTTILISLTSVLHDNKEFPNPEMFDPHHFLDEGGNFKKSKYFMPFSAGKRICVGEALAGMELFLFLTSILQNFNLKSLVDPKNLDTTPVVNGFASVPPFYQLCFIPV
Sequence of CYP2C9 (P11712 whole entry): as above

As for `CCN(CC)Cc1cc(Nc2ccnc3cc(Cl)ccc23)ccc1O` [AMODIAQUINE], the CLH in the data set with Liver microsome [1] worked out at 224 µL/min/g; with Liver microsome [4], 829 µL/min/g. Also, the values for the Km in data set [2] (microsomes) and in data set [3] (microsomes) were 5.17 µM and 3.33 µM, respectively.
Turning to `CCc1cccc2cc(C(O)CNC(C)(C)C)oc12` (stereo not drawn) [BUFURALOL], the CLH in the data set with Liver microsome [1] was found to be 32.3 µL/min/g; with Liver microsome [4], 31 µL/min/g. In addition, the figures for the Km in [2] (microsomes) and in data set [3] (microsomes) were 12.8 µM and 11.7 µM, respectively. For the same molecule, the clearance on Cytochrome P450 2D6 [5] stood at 3 µL/min/mg.
In the case of `COc1ccc2c(c1)[C@]13CCCC[C@@H]1[C@H](C2)N(C)CC3` [DEXTROMETHORPHAN], the results for the Km (at CYP2D6; in [2] (liver microsomes); in [3] (liver microsomes)) were 1.4 µM, 6.32 µM and 7.16 µM, respectively. Also, the results for the CLH in the data set on Liver microsome [1] and with Liver microsome [4] were 54.2 µL/min/g and 84.1 µL/min/g, respectively. Further, the Vmax on Cytochrome P450 2D6 [6] is listed as 140 pmol/min.
Take `O=C(O)Cc1ccccc1Nc1c(Cl)cccc1Cl` [DICLOFENAC]: the Km is 1.7 µM on CYP2C9, 8.55 µM in data set [2] (microsomes) and 11.6 µM in [3] (microsomes). In addition, the Vmax at Cytochrome P450 2C9 [7] was found to be 710 pmol/min. For the same molecule, the clearance at Cytochrome P450 2C9 [8] worked out at 130 µL/min/mg.
`COc1ccc([C@@H]2Sc3ccccc3N(CCN(C)C)C(=O)[C@@H]2OC(C)=O)cc1` [DILTIAZEM]: the CLH in the data set on Liver microsome [1] stood at 75.4 µL/min/g; with Liver microsome [4] it was 47.6 µL/min/g. In addition, the Km stood at 9.8 µM in data set [2] (liver microsomes) and 10 µM in [3] (liver microsomes).
For `Cc1ncc2n1-c1ccc(Cl)cc1C(c1ccccc1F)=NC2` [MIDAZOLAM], in [9], the CL was found to be 159 µL/min/g. Further, the CLH in the data set with Liver microsome [1] stood at 220 µL/min/g; in the data set with Liver microsome [4] it was 717 µL/min/g. Further, the Km stood at 3.04 µM in [2] (microsomes), 1.26 µM in data set [3] (microsomes) and 1.2 µM in the data set with CYP3A. For the same molecule, the Vmax in [10] is 636 pmol/min.
For `CCOc1ccc(NC(C)=O)cc1` [PHENACETIN], the CLH is 50.4 µL/min/g in the data set with Liver microsome [1] and 39.5 µL/min/g in the data set with Liver microsome [4]. Besides, the Km in [2] (liver microsomes) and in data set [3] (liver microsomes) was 22.6 µM in each case. For the same molecule, the CL on Cytochrome P450 1A2 [11] was found to be 14.6 µL/min/g. Moreover, at Cytochrome P450 1A2 [12], the Vmax is reported as 322 pmol/min.

B1: Cytochrome P450 1A2 (Homo sapiens) (protein)
chain: MALSQSVPFSATELLLASAIFCLVFWVLKGLRPRVPKGLKSPPEPWGWPLLGHVLTLGKNPHLALSRMSQRYGDVLQIRIGSTPVLVLSRLDTIRQALVRQGDDFKGRPDLYTSTLITDGQSLTFSTDSGPVWAARRRLAQNALNTFSIASDPASSSSCYLEEHVSKEAKALISRLQELMAGPGHFDPYNQVVVSVANVIGAMCFGQHFPESSDEMLSLVKNTHEFVETASSGNPLDFFPILRYLPNPALQRFKAFNQRFLWFLQKTVQEHYQDFDKNSVRDITGALFKHSKKGPRASGNLIPQEKIVNLVNDIFGAGFDTVTTAISWSLMYLVTKPEIQRKIQKELDTVIGRERRPRLSDRPQLPYLEAFILETFRHSSFLPFTIPHSTTRDTTLNGFYIPKKCCVFVNQWQVNHDPELWEDPSEFRPERFLTADGTAINKPLSEKMMLFGMGKRRCIGEVLAKWEIFLFLAILLQQLEFSVPPGVKVDLTPIYGLTMKHARCEHVQARLRFSIN
In the case of B1, in the data set “not read [13]”, the Km came to 5 µM and the Vmax was determined as 0.000117 µmol/min.

B2: Cytochrome P450 2C19 (Homo sapiens) (protein)
chain: MDPFVVLVLCLSCLLLLSIWRQSSGRGKLPPGPTPLPVIGNILQIDIKDVSKSLTNLSKIYGPVFTLYFGLERMVVLHGYEVVKEALIDLGEEFSGRGHFPLAERANRGFGIVFSNGKRWKEIRRFSLMTLRNFGMGKRSIEDRVQEEARCLVEELRKTKASPCDPTFILGCAPCNVICSIIFQKRFDYKDQQFLNLMEKLNENIRIVSTPWIQICNNFPTIIDYFPGTHNKLLKNLAFMESDILEKVKEHQESMDINNPRDFIDCFLIKMEKEKQNQQSEFTIENLVITAADLLGAGTETTSTTLRYALLLLLKHPEVTAKVQEEIERVIGRNRSPCMQDRGHMPYTDAVVHEVQRYIDLIPTSLPHAVTCDVKFRNYLIPKGTTILTSLTSVLHDNKEFPNPEMFDPRHFLDEGGNFKKSNYFMPFSAGKRICVGEGLARMELFLFLTFILQNFNLKSLIDPKDLDTTPVVNGFASVPPFYQLCFIPV
Regarding B2, in the data set “not read [13]”, the Michaelis-Menten constant (Km) turned out to be 5 µM and the Vmax turned out to be 0.000117 µmol/min.

B3: Cytochrome P450 2D6 (Homo sapiens) (protein)
chain: MGLEALVPLAVIVAIFLLLVDLMHRRQRWAARYPPGPLPLPGLGNLLHVDFQNTPYCFDQLRRRFGDVFSLQLAWTPVVVLNGLAAVREALVTHGEDTADRPPVPITQILGFGPRSQGVFLARYGPAWREQRRFSVSTLRNLGLGKKSLEQWVTEEAACLCAAFANHSGRPFRPNGLLDKAVSNVIASLTCGRRFEYDDPRFLRLLDLAQEGLKEESGFLREVLNAVPVLLHIPALAGKVLRFQKAFLTQLDELLTEHRMTWDPAQPPRDLTEAFLAEMEKAKGNPESSFNDENLRIVVADLFSAGMVTTSTTLAWGLLLMILHPDVQRRVQQEIDDVIGQVRRPEMGDQAHMPYTTAVIHEVQRFGDIVPLGVTHMTSRDIEVQGFRIPKGTTLITNLSSVLKDEAVWEKPFRFHPEHFLDAQGHFVKPEAFLPFSAGRRACLGEPLARMELFLFFTSLLQHFSFSVPTGQPRPSHHGVFAFLVSPSPYELCAVPR
For B3, in “not read [14]”, the Km came to 8.2 µM and the Vmax is 7e-05 µmol/min.
